Like-named read-outs stand apart in the source and are kept apart here. Where no end group is shown, it is not given here. [ ]: non-standard residue; d: D form. The star is where a group is joined. Met(O) = CS(=O)CC[C@H](N)C(=O)O; Hexanoyl = CCCCCC(=O)*; Aib = CC(C)(N)C(=O)O
T1: human VPAC2 (Homo sapiens, UniProt P41587)
T1 construct: expressed in transfected cells
T1 sequence (P41587 24-438): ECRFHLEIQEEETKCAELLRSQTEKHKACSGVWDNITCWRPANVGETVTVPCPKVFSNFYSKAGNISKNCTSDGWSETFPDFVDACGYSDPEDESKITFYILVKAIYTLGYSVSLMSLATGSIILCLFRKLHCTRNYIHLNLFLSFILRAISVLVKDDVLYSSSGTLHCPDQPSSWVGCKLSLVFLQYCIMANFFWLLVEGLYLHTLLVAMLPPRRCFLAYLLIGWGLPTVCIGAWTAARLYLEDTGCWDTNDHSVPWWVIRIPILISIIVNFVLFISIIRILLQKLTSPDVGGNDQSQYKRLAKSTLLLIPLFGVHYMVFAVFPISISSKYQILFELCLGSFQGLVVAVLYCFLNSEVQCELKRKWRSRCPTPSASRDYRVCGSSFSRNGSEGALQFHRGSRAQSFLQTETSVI

T2: human VPAC1 (Homo sapiens, UniProt P32241)
T2 sequence (P32241 31-457): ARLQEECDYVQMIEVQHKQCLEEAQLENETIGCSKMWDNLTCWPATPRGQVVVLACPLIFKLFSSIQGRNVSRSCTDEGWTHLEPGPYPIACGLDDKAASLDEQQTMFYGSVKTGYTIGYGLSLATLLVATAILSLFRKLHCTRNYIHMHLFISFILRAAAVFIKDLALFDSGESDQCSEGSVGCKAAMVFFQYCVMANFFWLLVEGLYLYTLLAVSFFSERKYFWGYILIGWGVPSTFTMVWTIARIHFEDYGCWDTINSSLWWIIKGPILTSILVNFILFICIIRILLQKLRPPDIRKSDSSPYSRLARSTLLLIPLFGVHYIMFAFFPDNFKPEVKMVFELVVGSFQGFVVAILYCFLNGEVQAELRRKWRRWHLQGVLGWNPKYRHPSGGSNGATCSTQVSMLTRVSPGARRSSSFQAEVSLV

T3: human PAC1 (Homo sapiens, UniProt P41586)
T3 sequence (P41586 21-468): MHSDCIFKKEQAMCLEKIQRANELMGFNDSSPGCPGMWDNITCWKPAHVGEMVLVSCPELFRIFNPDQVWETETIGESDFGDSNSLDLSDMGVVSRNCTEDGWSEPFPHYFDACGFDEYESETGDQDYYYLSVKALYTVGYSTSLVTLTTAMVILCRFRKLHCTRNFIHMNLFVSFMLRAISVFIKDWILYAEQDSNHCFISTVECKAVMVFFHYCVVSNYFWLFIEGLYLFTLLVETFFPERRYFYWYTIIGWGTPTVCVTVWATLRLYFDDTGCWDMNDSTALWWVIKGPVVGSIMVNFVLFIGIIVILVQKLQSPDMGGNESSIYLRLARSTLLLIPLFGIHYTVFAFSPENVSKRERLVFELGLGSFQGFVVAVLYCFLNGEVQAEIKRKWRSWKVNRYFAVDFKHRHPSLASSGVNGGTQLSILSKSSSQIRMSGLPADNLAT

T4: human VPAC2 receptor (human, UniProt P41587 24-438)
T4 sequence (looked up): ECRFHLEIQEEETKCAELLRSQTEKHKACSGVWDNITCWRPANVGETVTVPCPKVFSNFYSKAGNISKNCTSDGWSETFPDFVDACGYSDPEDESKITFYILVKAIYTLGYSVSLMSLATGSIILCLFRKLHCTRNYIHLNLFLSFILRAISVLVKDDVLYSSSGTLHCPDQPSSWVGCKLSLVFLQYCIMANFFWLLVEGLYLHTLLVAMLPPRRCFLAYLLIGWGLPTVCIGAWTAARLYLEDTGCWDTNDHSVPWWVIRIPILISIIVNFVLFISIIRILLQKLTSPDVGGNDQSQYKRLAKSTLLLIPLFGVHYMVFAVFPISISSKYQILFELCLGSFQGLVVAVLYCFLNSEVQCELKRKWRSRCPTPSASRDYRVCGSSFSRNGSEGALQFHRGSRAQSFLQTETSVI


What was measured:
human VPAC2 [1] = target: T1, human VPAC2; assay: Filter binding assay, membranes of stable VPAC2 cell line, 125I-labeled VIP tracer (Table 2)
Procedure: (§1) For this assay, the solutions and equipment include:
(§2) Presoak solution: 0.5% Polyethyleneamine in Aqua dest.
(§3) Buffer for flushing filter plates: 25 mM HEPES pH 7.4
(§4) Blocking buffer: 25 mM HEPES pH 7.4; 0.2% protease free BSA
(§5) Assay buffer: 25 mM HEPES pH 7.4; 0.5% protease free BSA
(§6) Dilution and assay plate: PS-Microplate, U form
(§7) Filtration Plate Multiscreen FB Opaque Plate; […] Type B Glasfiber filter
(§8) In order to prepare the filter plates, aspirate the presoak solution by vacuum filtration. Flush the plates twice with 200 μL flush buffer. Add 200 μL blocking buffer to the filter plate. The filter plate is then incubated […] for 1 hour at room temperature.
(§9) Fill the assay plate with 25 μL assay buffer, 25 μL membranes (2.5 μg) suspended in assay buffer, 25 μL compound (agonist) in assay buffer, and 25 μL tracer (about 40000 cpm) in assay buffer. Incubate the filled plate for 1 hour with shaking.
(§10) Conduct the transfer from assay plate to filter plate. Aspirate the blocking buffer by vacuum filtration and wash two times with flush buffer. Transfer 90 μL from the assay plate to the filter plate. Aspirate the 90 μL transferred from assay plate and wash three times with 200 μL flush buffer. Remove the plastic support. Dry for 1 hour at 60° C. Add 30 μL Microscint. Perform the count.

human VPAC1 = target: T2, human VPAC1; assay: Filter binding assay, membranes of cells transiently transfected with human VPAC1, 125I-labeled VIP tracer (Table 2); set-up: expressed in transfected cells
Procedure: as §1, §2, §3, §4, §5, §6, §7, §8, §9, §10

human VPAC2 [2] = target: T1, human VPAC2; assay: Alpha screen cAMP in vitro potency, human VPAC2 receptor; format: cell-based; conditions: cAMP generation; single result from two analyses performed in a single run; read-out: Human VPAC2 Receptor: Alpha Screen EC50
Procedure: Alpha screen: Cells are washed in the culture flask once with PBS. Then, the cells are rinsed with enzyme free dissociation buffer. The dissociated cells are removed. The cells are then spun down and washed in stimulation buffer. For each data point, 50,000 cells suspended in stimulation buffer are used. To this buffer, Alpha screen acceptor beads are added along with the stimuli. This mixture is incubated for 60 minutes. Lysis buffer and Alpha screen donor beads are added and are incubated for 60 to 120 minutes. The Alpha screen signal (indicative of intracellular cAMP levels) is read in a suitable instrument (e.g. AlphaQuest from Perkin-Elmer). Steps including Alpha screen donor and acceptor beads are performed in reduced light.

human PAC1 = target: T3, human PAC1; assay: Filter binding assay, membranes of cells transiently transfected with human PAC1, 125I-labeled PACAP-27 tracer (Table 2); set-up: expressed in transfected cells
Procedure: as §1, §2, §3, §4, §5, §6, §7, §8, §9, §10

human VPAC2 receptor = target: T4, human VPAC2 receptor; assay: cell-based or functional assay
[3] = read-out: Human VPAC2 Receptor Binding
[4] = read-out: Human VPAC1 Receptor Binding
[5] = read-out: Human PAC1 Receptor Binding

Molecule | IC50 (human VPAC2 [1]; [3]) [nM] | IC50 (human VPAC1; [4]) [nM] | IC50 (human PAC1; [5]) [nM] | other results
CC[C@H](C)[C@H](NC(=O)[C@H](CO)NC(=O)[C@H](CCC(N)=O)NC(=O)[C@H](CC(C)C)NC(=O)[C@H](Cc1ccc(O)cc1)NC(=O)[C@H](CCCCN)NC(=O)[C@H](CCCCN)NC(=O)[C@H](C)NC(=O)[C@H](C)NC(=O)[C@@H](NC(=O)[C@H](CCC(N)=O)NC(=O)[C@H](CCCCN)NC(=O)[C@H](CCCNC(=N)N)NC(=O)[C@H](CC(C)C)NC(=O)[C@H](CCCNC(=N)N)NC(=O)[C@@H](NC(=O)[C@H](Cc1ccc(O)cc1)NC(=O)[C@H](CCC(N)=O)NC(=O)[C@H](CC(=O)O)NC(=O)[C@@H](NC(=O)[C@H](Cc1ccccc1)NC(=O)[C@@H](NC(=O)[C@H](C)NC(=O)[C@H](CC(=O)O)NC(=O)[C@H](CO)NC(=O)[C@H](Cc1c[nH]cn1)NC(=O)[C@@H](N)CCSC)C(C)C)[C@@H](C)O)[C@@H](C)O)C(C)C)C(=O)N[C@@H](CCCCN)C(=O)N[C@@H](CCC(N)=O)C(=O)N[C@@H](CCCCN)C(=O)N[C@@H](CCCNC(=N)N)C(=O)N[C@@H](Cc1ccc(O)cc1)C(=O)NCC(=O)NCC(=O)N1CCC[C@H]1C(=O)N[C@@H](CO)C(=O)N[C@@H](CO)C(=O)NCC(=O)N[C@@H](C)C(=O)N1CCC[C@H]1C(=O)N1CCC[C@H]1C(=O)N1CCC[C@H]1C(=O)N[C@@H](CO)C(=O)O [Agonist P100] | 0.4 | 321 | 187 | EC50 (human VPAC2 [2]): 0.28 nM
Hexanoyl-HSDAVFTLNYTRLRKQVAAKKYLQSIKNKRYGGPSSGAPPPS [Agonist P161] | 6.61 | 119 | 4260 | –
Hexanoyl-HSDAVFTDNYTRLRKQVAAKKLLQSIKNKRYGGPSSGAPPPS [Agonist P132] | 1.51 | 617 | 1020 | –
HSDAVFTDNYTRLRRQVAARRYLQSIRNRRYGGPSSGAPPPS [Agonist P71] | 1.52 | 73.1 | – | –
[dH]SDAVFTDNYTRLRKQVAAKKYLQSIKNKRYGGPSSGAPPPS [Agonist P84] | 20 | 469 | – | –
Hexanoyl-HSDAVFTDNYTRLRKQVAAKKVLQSIKNKRYGGPSSGAPPPS [Agonist P134] | 2.13 | 833 | 479 | –
[Met(O)]HSDAVFTDNYTRLRKQVAAKKYLQSIKNKRYGGPSSGAPPPS [Agonist P199] | – | – | – | IC50 (human VPAC2 [1]): 8.26 nM; IC50 (human VPAC1): 429 nM; IC50 (human PAC1): 244 nM
Hexanoyl-HSDAVFTDNYTRLRKQVAAKKTLQSIKNKRYGGPSSGAPPPS [Agonist P131] | 5.67 | 1370 | 632 | –
HSDAVFTDNYTRLRKQVAAKKYLQSIKRGGPSSGAPPPS [Agonist P82] | 1.9 | 195 | – | –
H-HSDGVFTDNYTRLRKQVAAKKYLQSIKNKRYGGPSSGAPPPS [Agonist P102] | – | – | – | IC50 (human VPAC2 [1]): 15.4 nM; IC50 (human VPAC1): 184 nM; IC50 (human PAC1): 55 nM
HSDAVFTDNYTRLRKQVAAKKYLQSIKKGGPSSGAPPPS [Agonist P85] | 1.7 | 226 | – | –
HSDAVFTDNYTRLRRQVAAKKYLQSIKNKRYGGPSSGAPPPS [Agonist P72] | 1.52 | 159 | – | –
H-H[dA]DAVFTDNYTRLRKQVAAKKYLQSIKNKRYGGPSSGAPPPS [Agonist P47] | 0.84 | 124 | – | –
CCCCCC(=O)N[C@@H](Cc1c[nH]cn1)C(=O)N[C@@H](CO)C(=O)N[C@@H](CC(=O)O)C(=O)N[C@@H](C)C(=O)N[C@H](C(=O)N[C@@H](Cc1ccccc1)C(=O)N[C@H](C(=O)N[C@@H](CC(=O)O)C(=O)N[C@@H](CC(N)=O)C(=O)N[C@@H](Cc1ccc(O)cc1)C(=O)N[C@H](C(=O)N[C@@H](CCCNC(=N)N)C(=O)N[C@@H](CC(C)C)C(=O)N[C@@H](CCCNC(=N)N)C(=O)N[C@@H](CCCCN)C(=O)N[C@@H](CCC(N)=O)C(=O)NC(C)(C)C(=O)N[C@@H](C)C(=O)N[C@@H](C)C(=O)N[C@@H](CCCCN)C(=O)N[C@@H](CCCCN)C(=O)N[C@@H](Cc1ccc(O)cc1)C(=O)N[C@@H](CC(C)C)C(=O)N[C@@H](CCC(N)=O)C(=O)N[C@@H](CO)C(=O)N[C@H](C(=O)N[C@@H](CCCCN)C(=O)N[C@@H](CC(N)=O)C(=O)N[C@@H](CCCCN)C(=O)N[C@@H](CCCNC(=N)N)C(=O)N[C@@H](Cc1ccc(O)cc1)C(=O)NCC(=O)NCC(=O)N1CCC[C@H]1C(=O)N[C@@H](CO)C(=O)N[C@@H](CO)C(=O)NCC(=O)N[C@@H](C)C(=O)N1CCC[C@H]1C(=O)N1CCC[C@H]1C(=O)N1CCC[C@H]1C(=O)N[C@@H](CO)C(=O)O)[C@@H](C)CC)[C@@H](C)O)[C@@H](C)O)C(C)C [Agonist P189] | 0.2 | 6.87 | 303 | –
Hexanoyl-HHSDAVFTDNYTRLLAKLALQKYLQSIKNKRYGGPSSGAPPPS [Agonist P191] | 60.6 | 1280 | > 25000 | –
Hexanoyl-HSDAVFTRNYTRLRKQVAAKKYLQSIKNKRYGGPSSGAPPPS [Agonist P162] | 3.72 | 5.14 | 186 | –
IHSDAVFTDNYTRLRKQVAAKKYLQSIKNKRYGGPSSGAPPPS [Agonist P105] | – | – | – | IC50 (human VPAC2 [1]): 5.41 nM; IC50 (human VPAC1): 263 nM; IC50 (human PAC1): 127 nM
HSDAVFTDNYTREKEKVAAKKYLQSIKNKRYGGPSSGAPPPS [Agonist P87] | 1110 | 636 | – | EC50 (human VPAC2 [2]): > 10000 nM
Hexanoyl-HSDAVFTDNYTRLRKQVAAKKYLQ[Aib]IKNKRYGGPSSGAPPPS (ends and bridges not checked) [P187] | – | – | – | EC50 cAMP, Alpha Screen (human VPAC2 receptor): 0.4 nM

Reference: US20080026996A1, “Selective Vpac2 Receptor Reptide Agonists” (ELI LILLY AND COMPANY, priority 2004, published 2008)
